In US10517849B2, “LSD1 inhibitors and medical uses thereof” (Constellation Pharmaceuticals, Inc., priority 2016, dated 2019):
Counter-ions that a name gives are not always drawn.

Tests used:
[1] = test system: LY-96 mRNA induction in MV4-11 cells; assay: LSD1 LY96 Quantigene Assay; type: cell-based; conditions: Homo sapiens, 16 h, Quantigene 2.0
Protocol: MV4-11 cells were cultured at a density of 4×10^4 cells per well in a 96-well plates and treated with various doses inhibitor starting from 10 μM up to 0.0005 μM for 16 h. The LY-96 mRNA induction was quantified using the Quantigene 2.0 system (Affymetrix). The cells were lysed with Lysis Mixture containing Proteinase K. The working reagent for capturing the RNA was prepared according to the steps detailed in “Capturing Target RNA from Cultured Cell or Blood Lysates” in the Quantigene handbook. The subsequent hybridization with LY-96 probe, signal amplification and detection steps were performed as described in the manual. The chemiluminescence was read using Envision (PerkinElmer) and Abase (IDBS software) was used to plot the dose response curves and calculate IC50.

LSD1 = LSD1 (Homo sapiens (Human), UniProt O60341); assay: LSD1 TR-FRET Assay; type: biochemical; conditions: biotinylated H3K4me1 peptide 4 μM, 10 nM LSD1, 40 nM FAD, 50 minutes at room temperature
Protocol: LSD1 demethylase reactions were carried out in 50 mM HEPES pH 7.4, 100 mM NaCl, 1 mM DTT, 0.01% Tween-20, and 0.1 mg/mL BSA. All enzymatic reactions were performed for 50 minutes at room temperature in a 10-μL volume. Five microliters of 8 μM biotinylated H3K4me1 peptide solution was added to each well of a black 384 well, clear-bottom assay plate containing 80 nL compound (final concentration of 0.8% DMSO and 4 μM substrate). Reactions were initiated by the addition of a mixture containing 20 nM LSD1 and 80 nM FAD (5 μL). LSD1 and FAD final concentrations were 10 and 40 nM, respectively. Enzyme activity was stopped by the addition of 90 μL of high salt buffer consisting of 50 mM HEPES pH 7.4, 500 mM NaCl, 1 mM DTT, 0.01% Tween-20, and 0.1 mg/mL BSA. Ten microliters of the quenched reaction mixtures were transferred to a black 384 well ProxiPlate. Ten microliters of detection mixture was added to the ProxiPlate, Europium-labeled antibody and Streptavidin APC were used at final concentrations of 0.3 nM and 200 nM, respectively (total assay volume of 20 μL). Capture of the product peptide by the anti-H3K4me0 antibody and Streptavidin APC was allowed to proceed for 60 min at room temperature before measuring the TR-FRET signal. Plates were read on a Perkin Elmer EnVision. Percent inhibition was calculated using Max (no inhibitor) and Min (quenched with stop buffer) controls and inhibition curves plotted to determine IC50 values.

Kasumi-1 = Kasumi-1 GI50 Assay; type: cell-based; conditions: Homo sapiens, 288 h; Kasumi-1 cells, 12 days, Cell Titer-Glo viability
Protocol: Cells were plated at 5,000 cells per well in 96 well tissue culture dishes containing tool compounds arrayed in a 10-point dose curve, ranging from […] with 4-fold dilutions, and split every fourth day at a fixed ratio to re-establish 5,000 cells/well density for DMSO-treated controls. Cell treatments were carried out for a total of 12 days. At each 4-day split, the viable cell numbers were determined using the Cell Titer-Glo luminescent cell viability assay (Promega, Madison, Wis. USA) using an EnVision® Multilabel Plate Reader (Perkin Elmer, Waltham, Mass. USA). GraphPad Prism 6 (GraphPad Software, Inc., La Jolla, Calif. USA) was used for curve fitting and determination of GI50 values.

Row | EC50 [1] [nM] | Compound | IC50 (LSD1) [nM] | GI50 (Kasumi-1) [nM]
1 | < 100 | CC/C(=C\c1ccccc1)[C@@H]1C[C@H]1NC1CC2(C1)CN(CCNS(=O)(=O)C1CC1)C2 [Compound 6, N-(2-(6-(((1R,2S)-2-((E)-1-phenylbut-1-en-2-yl)cyclopropyl)amino)-2-azaspiro[3.3]heptan-2-yl)ethyl)cyclopropanesulfonamide bis(2,2,2-trifluoroacetate)] | – | < 100
2 | < 100 | CC/C(=C\c1ccccc1)[C@@H]1C[C@H]1NC1CC2(C1)CN(CCNS(=O)(=O)CC)C2 [Compound 7, N-(2-(6-(((1R,2S)-2-((E)-1-phenylbut-1-en-2-yl)cyclopropyl)amino)-2-azaspiro[3.3]heptan-2-yl)ethyl)ethanesulfonamide bis(2,2,2-trifluoroacetate)] | – | < 100
3 | < 100 | CC/C(=C\c1ccccc1)[C@@H]1C[C@H]1NC1CC2(C1)CN(CCNS(=O)(=O)CCOC)C2 [Compound 9, 2-methoxy-N-(2-(6-(((1R,2S)-2-((E)-1-phenylbut-1-en-2-yl)cyclopropyl)amino)-2-azaspiro[3.3]heptan-2-yl)ethyl)ethanesulfonamide bis(2,2,2-trifluoroacetate)] | – | < 100
4 | < 100 | CC/C(=C\c1ccccc1)[C@@H]1C[C@H]1NC1CC2(C1)CN(C(C)(C)C(N)=O)C2 [Compound 14, 2-methyl-2-(6-(((1R,2S)-2-((E)-1-phenylbut-1-en-2-yl)cyclopropyl)amino)-2-azaspiro[3.3]heptan-2-yl)propanamide bis(2,2,2-trifluoroacetate)] | – | < 100
5 | < 100 | CC/C(=C\c1ccccc1)[C@@H]1C[C@H]1NC1CC2(CCN(C[C@@H](C)O)CC2)C1 [Compound 16, (R)-1-(2-(((1R,2S)-2-((E)-1-phenylbut-1-en-2-yl)cyclopropyl)amino)-7-azaspiro[3.5]nonan-7-yl)propan-2-ol dihydrochloride] | – | < 100
6 | < 100 | CC/C(=C\c1ccccc1)[C@@H]1C[C@H]1NC1CC2(CCN(CC(C)(C)O)CC2)C1 [Compound 18, 2-methyl-1-(2-(((1R,2S)-2-((E)-1-phenylbut-1-en-2-yl)cyclopropyl)amino)-7-azaspiro[3.5]nonan-7-yl)propan-2-ol dihydrochloride] | – | < 100
7 | < 100 | CC/C(=C\c1ccccc1)[C@@H]1C[C@H]1NC1CC2(CCN(CCC(N)=O)CC2)C1 [Compound 24, 3-(2-(((1R,2S)-2-((E)-1-phenylbut-1-en-2-yl)cyclopropyl)amino)-7-azaspiro[3.5]nonan-7-yl)propanamide dihydrochloride] | – | < 100
8 | < 100 | CC/C(=C\c1ccccc1)[C@@H]1C[C@H]1NC1CC2(C1)CN(CC(=O)NC(C)C)C2 [Compound 27, N-isopropyl-2-(6-(((1R,2S)-2-((E)-1-phenylbut-1-en-2-yl)cyclopropyl)amino)-2-azaspiro[3.3]heptan-2-yl)acetamide bis(2,2,2-trifluoroacetate)] | – | < 100
9 | < 100 | CC/C(=C\c1ccccc1)[C@@H]1C[C@H]1NC1CC2(C1)CN(CC(=O)NS(C)(=O)=O)C2 [Compound 29, N-(methylsulfonyl)-2-(6-(((1R,2S)-2-((E)-1-phenylbut-1-en-2-yl)cyclopropyl)amino)-2-azaspiro[3.3]heptan-2-yl)acetamide bis(2,2,2-trifluoroacetate)] | – | < 100

Further lines, the molecule ahead of its results:

Row | Compound | EC50 [1] [nM] | IC50 (LSD1) [nM] | GI50 (Kasumi-1) [nM]
10 | CC/C(=C\c1ccccc1)[C@@H]1C[C@H]1NC1CC2(C1)CN(CCO)C2 [Compound 1, 2-(6-(((1R,2S)-2-((E)-1-phenylbut-1-en-2-yl)cyclopropyl)amino)-2-azaspiro[3.3]heptan-2-yl)ethanol] | < 100 | < 100 | < 100
11 | CC/C(=C\c1ccccc1)[C@@H]1C[C@H]1NC1CC2(C1)CN(C(CO)CO)C2 [Compound 2, 2-(6-(((1R,2S)-2-((E)-1-phenylbut-1-en-2-yl)cyclopropyl)amino)-2-azaspiro[3.3]heptan-2-yl)propane-1,3-diol] | < 100 | < 100 | < 100
12 | CC/C(=C\c1ccccc1)[C@@H]1C[C@H]1NC1CC2(C1)CN(CCNS(C)(=O)=O)C2 [Compound 4, N-(2-(6-(((1R,2S)-2-((E)-1-phenylbut-1-en-2-yl)cyclopropyl)amino)-2-azaspiro[3.3]heptan-2-yl)ethyl)methanesulfonamide bis(2,2,2-trifluoroacetate)] | < 100 | < 100 | < 100
13 | CC/C(=C\c1ccccc1)[C@@H]1C[C@H]1NC1CC2(C1)CN(CCNC(C)=O)C2 [Compound 5, N-(2-(6-(((1R,2S)-2-((E)-1-phenylbut-1-en-2-yl)cyclopropyl)amino)-2-azaspiro[3.3]heptan-2-yl)ethyl)acetamide bis(2,2,2-trifluoroacetate)] | < 100 | – | < 100
14 | CC/C(=C\c1ccccc1)[C@@H]1C[C@H]1NC1CC2(C1)CN(CCNS(=O)(=O)C(C)C)C2 [Compound 8, N-(2-(6-(((1R,2S)-2-((E)-1-phenylbut-1-en-2-yl)cyclopropyl)amino)-2-azaspiro[3.3]heptan-2-yl)ethyl)propane-2-sulfonamide bis(2,2,2-trifluoroacetate)] | < 100 | – | < 100
15 | CC/C(=C\c1ccccc1)[C@@H]1C[C@H]1NC1CC2(CCN(C(CO)CO)CC2)C1 [Compound 10, 2-(2-(((1R,2S)-2-((E)-1-phenylbut-1-en-2-yl)cyclopropyl)amino)-7-azaspiro[3.5]nonan-7-yl)propane-1,3-diol bis(2,2,2-trifluoroacetate)] | < 100 | – | < 100
16 | CC/C(=C\c1ccccc1)[C@@H]1C[C@H]1NC1CC2(C1)CN(CC(C)(C)NS(C)(=O)=O)C2 [Compound 15, N-(2-methyl-1-(6-(((1R,2S)-2-((E)-1-phenylbut-1-en-2-yl)cyclopropyl)amino)-2-azaspiro[3.3]heptan-2-yl)propan-2-yl)methanesulfonamide bis(2,2,2-trifluoroacetate)] | < 100 | – | < 100
17 | CC/C(=C\c1ccccc1)[C@@H]1C[C@H]1NC1CC2(CCN(C[C@@H](O)CO)CC2)C1 [Compound 19, (R)-3-(2-(((1R,2S)-2-((E)-1-phenylbut-1-en-2-yl)cyclopropyl)amino)-7-azaspiro[3.5]nonan-7-yl)propane-1,2-diol dihydrochloride] | < 100 | – | < 100
18 | CC/C(=C\c1ccccc1)[C@@H]1C[C@H]1NC1CC2(CCN(C[C@H](O)CO)CC2)C1 [Compound 20, (S)-3-(2-(((1R,2S)-2-((E)-1-phenylbut-1-en-2-yl)cyclopropyl)amino)-7-azaspiro[3.5]nonan-7-yl)propane-1,2-diol dihydrochloride] | < 100 | – | < 100
19 | CC/C(=C\c1ccccc1)[C@@H]1C[C@H]1NC1CC2(C1)CN(CC(=O)NCCS(C)(=O)=O)C2 [Compound 26, N-(2-(methylsulfonyl)ethyl)-2-(6-(((1R,2S)-2-((E)-1-phenylbut-1-en-2-yl)cyclopropyl)amino)-2-azaspiro[3.3]heptan-2-yl)acetamide bis(2,2,2-trifluoroacetate)] | < 100 | – | < 100
20 | CC/C(=C\c1ccccc1)[C@@H]1C[C@H]1NC1CC2(C1)CN(CC(=O)N(C)C)C2 [Compound 28, N,N-dimethyl-2-(6-(((1R,2S )-2-((E)-1-phenylbut-1-en-2-yl)cyclopropyl)amino)-2-azaspiro[3.3]heptan-2-yl)acetamide bis(2,2,2-trifluoroacetate)] | < 100 | – | < 100
21 | CC/C(=C\c1ccccc1)[C@@H]1C[C@H]1NC1CC2(C1)CN(C(C)C(N)=O)C2 (stereo partly drawn) [Compound 30, 2-(6-(((1R,2S)-2-((E)-1-phenylbut-1-en-2-yl)cyclopropyl)amino)-2-azaspiro[3.3]heptan-2-yl)propanamide bis(2,2,2-trifluoroacetate)] | < 100 | – | < 100
